The values below come from patent US11168073B2, “3,3-difluoroallylamines or salts thereof and pharmaceutical compositions comprising the same” (YUHAN CORPORATION, priority 2018, dated 2021).

Each structure is given as a SMILES string. Counter-ions that a name gives are not always drawn. Like-named read-outs stand apart in the source and are kept apart here. A value given as a limit tells only on which side of the number the result lay.

Type in all cases: biochemical
Experiment [1] deals with T1, recombinant human MAO-B (monoamine oxidase-B) (Homo sapiens, UniProt P27338).
T1 construct: purchased Sigma-Aldrich
T1 sequence (P27338 1-520): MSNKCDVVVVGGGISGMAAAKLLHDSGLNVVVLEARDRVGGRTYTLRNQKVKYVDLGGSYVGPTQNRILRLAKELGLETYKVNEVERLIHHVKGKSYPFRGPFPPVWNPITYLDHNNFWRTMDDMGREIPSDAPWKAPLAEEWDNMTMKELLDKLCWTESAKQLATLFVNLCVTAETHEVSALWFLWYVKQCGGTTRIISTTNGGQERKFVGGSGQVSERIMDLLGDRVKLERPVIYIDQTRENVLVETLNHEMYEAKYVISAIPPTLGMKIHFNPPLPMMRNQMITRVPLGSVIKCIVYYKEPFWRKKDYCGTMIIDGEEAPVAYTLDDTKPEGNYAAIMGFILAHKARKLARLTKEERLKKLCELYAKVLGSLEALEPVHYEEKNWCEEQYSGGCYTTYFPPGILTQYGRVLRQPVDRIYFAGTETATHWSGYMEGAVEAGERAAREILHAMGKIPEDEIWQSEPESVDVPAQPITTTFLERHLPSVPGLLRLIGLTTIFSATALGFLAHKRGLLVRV
The experiment is described as follows: Activity evaluation on recombinant human MAO-B (Amplex Red/HRP-coupled assay, 1 mM benzylamine substrate). Particulars: read-out: Inhibitory Activity (IC50, nM) MAO-B. In a few lines: (§1)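 Enzyme activity was measured as fluorescence rate (ex 544, em 590 nm) from resorufin formed by HRP-coupled H2O2 oxidation of 200 uM Amplex Red. Compounds were first incubated 30 min at 37 °C with enzyme at pH 7.4; substrates were 0.5 mM tyramine (MAO-A), 1 mM benzylamine (MAO-B) and 1 mM putrescine (DAO).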

For experiment [2], the target named is T2, recombinant human VAP-1 (Homo sapiens, UniProt Q16853).
T2 construct: purchased R&D systems
T2 sequence (Q16853 1-763): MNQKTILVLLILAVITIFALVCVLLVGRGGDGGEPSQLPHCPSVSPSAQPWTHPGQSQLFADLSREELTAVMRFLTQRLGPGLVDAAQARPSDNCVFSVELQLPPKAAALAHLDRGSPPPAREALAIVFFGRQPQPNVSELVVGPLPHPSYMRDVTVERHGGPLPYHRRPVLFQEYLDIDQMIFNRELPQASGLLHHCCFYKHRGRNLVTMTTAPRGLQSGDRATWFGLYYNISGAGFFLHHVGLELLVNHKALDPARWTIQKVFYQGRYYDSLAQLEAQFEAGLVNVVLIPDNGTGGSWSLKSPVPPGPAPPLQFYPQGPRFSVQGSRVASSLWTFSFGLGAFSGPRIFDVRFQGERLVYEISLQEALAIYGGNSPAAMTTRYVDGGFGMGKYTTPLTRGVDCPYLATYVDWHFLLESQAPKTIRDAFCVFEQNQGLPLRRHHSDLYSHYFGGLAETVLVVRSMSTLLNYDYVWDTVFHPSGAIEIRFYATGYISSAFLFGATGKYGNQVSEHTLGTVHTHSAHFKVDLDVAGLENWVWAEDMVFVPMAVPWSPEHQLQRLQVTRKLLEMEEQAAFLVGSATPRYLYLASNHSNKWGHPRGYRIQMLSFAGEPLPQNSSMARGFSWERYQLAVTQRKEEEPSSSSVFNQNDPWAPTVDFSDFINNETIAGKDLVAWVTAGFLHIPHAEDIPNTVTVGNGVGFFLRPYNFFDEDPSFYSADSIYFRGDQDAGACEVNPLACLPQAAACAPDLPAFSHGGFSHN
The experiment is described as follows: Activity evaluation on recombinant human VAP-1 (Amplex Red/HRP-coupled hydrogen peroxide assay, benzylamine substrate). Particulars: read-out: Inhibitory Activity (IC50, nM) human VAP-1. An outline of the steps:
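Recombinant human VAP-1 in 50 mM sodium phosphate pH 7.4 preincubated 30 min at 37 °C with compound (8-point 1:3 series, <1% DMSO), then 1 mM benzylamine, 200 uM Amplex Red, 1 U/mL HRP added. H2O2-derived resorufin fluorescence (ex 544/em 590) followed 1–2 h; IC50 from four-parameter fit of rate inhibition.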

Experiment [3] has as its target T3, recombinant human DAO (diamine oxidase) (Homo sapiens, UniProt P19801).
T3 construct: purchased R&D systems
T3 sequence (P19801 20-751): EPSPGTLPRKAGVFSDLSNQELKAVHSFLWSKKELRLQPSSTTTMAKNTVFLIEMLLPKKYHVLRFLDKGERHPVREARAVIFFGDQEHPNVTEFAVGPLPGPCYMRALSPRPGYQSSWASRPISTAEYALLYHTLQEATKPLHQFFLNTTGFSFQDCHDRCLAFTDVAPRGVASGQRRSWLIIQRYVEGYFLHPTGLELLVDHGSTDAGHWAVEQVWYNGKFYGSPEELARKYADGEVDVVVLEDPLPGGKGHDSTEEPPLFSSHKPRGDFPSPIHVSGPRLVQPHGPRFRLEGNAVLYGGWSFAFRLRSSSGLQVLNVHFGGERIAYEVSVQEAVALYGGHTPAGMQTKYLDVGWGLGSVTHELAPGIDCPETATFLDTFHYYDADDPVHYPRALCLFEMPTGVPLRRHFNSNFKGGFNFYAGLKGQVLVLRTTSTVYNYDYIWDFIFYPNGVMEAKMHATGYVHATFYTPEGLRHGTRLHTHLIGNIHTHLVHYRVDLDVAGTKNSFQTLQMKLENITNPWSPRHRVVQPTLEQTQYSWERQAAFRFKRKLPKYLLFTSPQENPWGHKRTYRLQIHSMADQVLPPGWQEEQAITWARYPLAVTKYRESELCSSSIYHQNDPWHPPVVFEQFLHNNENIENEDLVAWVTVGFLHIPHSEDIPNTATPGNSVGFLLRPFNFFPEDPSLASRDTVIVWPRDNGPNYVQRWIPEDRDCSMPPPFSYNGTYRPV
The experiment is described as follows: Activity evaluation on recombinant human DAO (Amplex Red/HRP-coupled assay, 1 mM putrescine substrate). Particulars: read-out: Inhibitory Activity (IC50, nM) DAO. In a few lines:
as §1

The target in experiment [4] is T4, recombinant human MAO-A (monoamine oxidase-A) (Homo sapiens, UniProt P21397).
T4 construct: purchased Sigma-Aldrich
T4 sequence (P21397 1-527): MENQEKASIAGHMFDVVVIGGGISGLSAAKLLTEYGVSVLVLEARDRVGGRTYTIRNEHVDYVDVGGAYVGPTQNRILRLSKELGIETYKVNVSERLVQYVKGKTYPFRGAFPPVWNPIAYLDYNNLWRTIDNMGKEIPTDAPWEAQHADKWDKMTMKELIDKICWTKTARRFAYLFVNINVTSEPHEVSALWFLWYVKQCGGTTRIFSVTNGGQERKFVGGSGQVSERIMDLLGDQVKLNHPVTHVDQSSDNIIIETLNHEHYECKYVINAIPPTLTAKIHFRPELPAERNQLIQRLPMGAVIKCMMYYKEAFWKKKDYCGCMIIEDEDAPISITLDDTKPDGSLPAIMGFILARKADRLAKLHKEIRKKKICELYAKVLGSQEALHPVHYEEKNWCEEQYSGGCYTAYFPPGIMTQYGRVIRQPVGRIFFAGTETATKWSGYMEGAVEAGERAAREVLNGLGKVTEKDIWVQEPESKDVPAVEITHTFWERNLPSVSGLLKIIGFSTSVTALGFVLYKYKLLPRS
Nature of the experiment: Activity evaluation on recombinant human MAO-A (Amplex Red/HRP-coupled assay, 0.5 mM tyramine substrate). Particulars: read-out: Inhibitory Activity (IC50, nM) MAO-A. An outline of the steps:
as §1

[5] abbreviates: recombinant human VAP-1, 30 min preincubation at 37° C., 1 mM benzylamine.
Where [6] appears, read: recombinant human VAP-1, benzylamine substrate.

The IC50 is the concentration that gives 50% inhibition. Consider `Cc1cc(-c2ccc(S(C)(=O)=O)cc2)sc1Cn1cnn(CC(CN)=C(F)F)c1=O` [Example 154, 2-[2-(aminomethyl)-3,3-difluoro-allyl]-4-[[3-methyl-5-(4-methylsulfonylphenyl)-2-thienyl]methyl]-1,2,4-triazol-3-one Trifluoroacetate], for which the IC50 in experiment [1] (1 mM benzylamine) was more than 100000 nM; in experiment [2] (setting [5]), 4 nM; in experiment [3] (1 mM putrescine), 21000 nM; in experiment [4] (0.5 mM tyramine) it was more than 100000 nM.

Take `NCC(Cn1ncn(Cc2ccc(-c3ccc4c(c3)OCO4)s2)c1=O)=C(F)F` [Example 126, 2-[2-(aminomethyl)-3,3-difluoro-allyl]-4-[[5-(1,3-benzodioxol-5-yl)-2-thienyl]methyl]-1,2,4-triazol-3-one Trifluoroacetate]: the IC50 is 760 nM in experiment [1] (1 mM benzylamine), 0.5 nM in experiment [2] (setting [5]), more than 100000 nM in experiment [3] (1 mM putrescine) and more than 100000 nM in experiment [4] (0.5 mM tyramine).

`NCC(Cn1ncn(-c2ncc(-c3ccc(N4CCNCC4)cc3)cc2F)c1=O)=C(F)F` [Example 83, 2-[2-(aminomethyl)-3,3-difluoro-allyl]-4-[3-fluoro-5-(4-piperazin-1-ylphenyl)-2-pyridyl]-1,2,4-triazol-3-one Ditrifluoroacetate]: the IC50 in experiment [1] (1 mM benzylamine) was more than 10000 nM; in experiment [2] (setting [5]) it was 0.4 nM; in experiment [3] (1 mM putrescine), 250 nM; in experiment [4] (0.5 mM tyramine) it was more than 100000 nM.

On to `NCC(Cn1ncn(Cc2ccc(C#Cc3ccc4c(n3)OCCN4)s2)c1=O)=C(F)F` [Example 168, 2-[2-(aminomethyl)-3,3-difluoro-allyl]-4-[[5-[2-(2,3-dihydro-1H-pyrido[2,3-b][1,4]oxazin-6-yl)ethynyl]-2-thienyl]methyl]-1,2,4-triazol-3-one Ditrifluoroacetate], for which the IC50 was 45000 nM in experiment [1] (1 mM benzylamine), 1 nM in experiment [2] (setting [5]), more than 100000 nM in experiment [3] (1 mM putrescine) and more than 10000 nM in experiment [4] (0.5 mM tyramine).

As for `CN1C(=O)CCc2cc(-c3ccc(CCn4cnn(CC(CN)=C(F)F)c4=O)s3)ccc21` [Example 179, 6-[5-[2-[1-[2-(aminomethyl)-3,3-difluoro-allyl]-5-oxo-1,2,4-triazol-4-yl]ethyl]-2-thienyl]-1-methyl-3,4-dihydroquinolin-2-one Trifluoroacetate], the IC50 in experiment [1] (1 mM benzylamine) is more than 100000 nM; in experiment [2] (setting [5]), 0.3 nM; in experiment [3] (1 mM putrescine), 290 nM; in experiment [4] (0.5 mM tyramine) it was more than 100000 nM.

As to `Cc1cc(-c2ccc(Cn3cnn(CC(CN)=C(F)F)c3=O)s2)cc2c1NC(=O)CC2` [Example 134, 6-[5-[[1-[2-(aminomethyl)-3,3-difluoro-allyl]-5-oxo-1,2,4-triazol-4-yl]methyl]-2-thienyl]-8-methyl-3,4-dihydro-1H-quinolin-2-one Trifluoroacetate], the IC50 in experiment [1] (1 mM benzylamine) is 22000 nM; in experiment [2] (setting [5]), 0.3 nM; in experiment [3] (1 mM putrescine), more than 100000 nM; in experiment [4] (0.5 mM tyramine), more than 100000 nM.

With `CCn1cc(-c2cccc(-c3csc(Cn4cnn(CC(CN)=C(F)F)c4=O)c3)c2)cn1` [Example 289, 2-[2-(aminomethyl)-3,3-difluoro-allyl]-4-[[4-[3-(1-ethylpyrazol-4-yl)phenyl]-2-thienyl]methyl]-1,2,4-triazol-3-one Trifluoroacetate], the IC50 in experiment [1] (1 mM benzylamine substrate) was 12000 nM; in experiment [2] (setting [6]), 0.6 nM; in experiment [3] (1 mM putrescine substrate) it was 14500 nM; in experiment [4] (0.5 mM tyramine substrate) it was more than 100000 nM.

For the compound `Cc1cc(-c2ccc(C(=O)N3CCOCC3)cc2)cnc1-n1cnn(CC(CN)=C(F)F)c1=O` [Example 236, 2-[2-(aminomethyl)-3,3-difluoro-allyl]-4-[3-methyl-5-[4-(morpholine-4-carbonyl)phenyl]-2-pyridyl]-1,2,4-triazol-3-one Trifluoroacetate], the IC50 in experiment [1] (1 mM benzylamine substrate) was more than 100000 nM; in experiment [2] (setting [6]), 0.8 nM; in experiment [3] (1 mM putrescine substrate), 6700 nM; in experiment [4] (0.5 mM tyramine substrate) it was more than 100000 nM.

Consider `Cc1cc(-c2ccc(C(F)(F)F)nc2)cnc1-n1cnn(CC(CN)=C(F)F)c1=O` [Example 70, 2-[2-(aminomethyl)-3,3-difluoro-allyl]-4-[3-methyl-5-[6-(trifluoromethyl)-3-pyridyl]-2-pyridyl]-1,2,4-triazol-3-one Trifluoroacetate], for which the IC50 in experiment [1] (1 mM benzylamine) is 5800 nM; in experiment [2] (setting [5]) it was 0.7 nM; in experiment [3] (1 mM putrescine), 1500 nM; in experiment [4] (0.5 mM tyramine), more than 100000 nM.

With `Cc1cc(-c2ccc3ocnc3c2)cnc1-n1cnn(CC(CN)=C(F)F)c1=O` [Example 229, 2-[2-(aminomethyl)-3,3-difluoro-allyl]-4-[5-(1,3-benzoxazol-5-yl)-3-methyl-2-pyridyl]-1,2,4-triazol-3-one Trifluoroacetate], the IC50 in experiment [1] (1 mM benzylamine substrate) was 4100 nM; in experiment [2] (setting [6]), 0.6 nM; in experiment [3] (1 mM putrescine substrate) it was 97000 nM; in experiment [4] (0.5 mM tyramine substrate), more than 10000 nM.

Turning to `Cc1cc(C#Cc2ccc3c(c2)NCCO3)cnc1-n1cnn(CC(CN)=C(F)F)c1=O` [Example 243, 2-[2-(aminomethyl)-3,3-difluoro-allyl]-4-[5-[2-(3,4-dihydro-2H-1,4-benzoxazin-6-yl)ethynyl]-3-methyl-2-pyridyl]-1,2,4-triazol-3-one Ditrifluoroacetate], the IC50 in experiment [1] (1 mM benzylamine substrate) was found to be 2200 nM; in experiment [2] (setting [6]), 0.9 nM; in experiment [3] (1 mM putrescine substrate), 4600 nM; in experiment [4] (0.5 mM tyramine substrate), 32700 nM.
